Experiments:
[1] = cited from earlier work
3xTg AD mice [2] = assay: Quantification of intraneuronal Aβ (Aβ+ neurons) in dSub after drug infusions; format: in vivo; conditions: Lonafarnib 80 mg/kg intraventricular, 10 days; young 3xTg AD mice
Protocol: (§1) In these experiments, a final concentration of 50 mg/kg of Fasudil (10 mM; Selleck Chemicals, Houston, TX, United States) was infused for 14 days in mice and stored at −80° C., whilst a final concentration of 80 mg/kg of Lonafarnib (5 mM; Cayman Chemical, Ann Arbor, MI, United States) was infused for 10 days and stored −20° C. between infusions. […] The same dosages were used during combinatorial infusions of Fasudil and Lonafarnib (administered for a duration of 7 days) in mice (n=4) as the drugs target independent intracellular pathways. All dosages in ml were calculated using; dosage (mg)/concentration (mg/ml)=dose×ml) and were infused at a volume of 60 μl at a rate of 1 μl/min using saline as a control vehicle. […]
Effect size (Cohen's D) was calculated based on initial experiments between animals infused with Fasudil and animals infused with a vehicle, and the resulting effects on intraneuronal Aβ in dSub. Based on each group consisting of n=2 animals, an effect size of 0.75 was calculated (0.8 is considered a large effect size). […] Behavioral performance in the morphed environments of the context-dependent spatial memory task was calculated as follows: dig in square-consistent location=1, dig in circle-consistent location=0, dig in any other location=0.5. […]

3xTg AD mice [3] = assay: Multiplex ELISA of Aβ40, Aβ42, p-tau and t-tau in CSF sampled by push-pull microdialysis; format: in vivo; conditions: Lonafarnib, day 10 of infusion, average across younger (injected with AAV-tau) and older mice, vs vehicle
Protocol: Animals were implanted with microdialysis guide cannulas 2 months following injections. Push-pull microdialysis apparatus and sampling Push-pull microdialysis was conducted as previously described (Bjorkli et al., 2021 supra). A refrigerated fraction collector (CMA 470) was set to 6° C. for the storage of collected CSF in 300 μl low-retention polypropylene plastic vials (Harvard Apparatus, Cambridge, MA, United States). Fluorinated ethylene propylene (FEP) peristaltic tubing (CMA Microdialysis AB, Kista, Sweden) was placed inside each plastic vial for collection and connected to the cassette of the peristaltic roller pump (Reglo ICC Digital). This peristaltic FEP tubing was connected to the outlet side of microdialysis probes (β-irrigated 2 mDa microdialysis probe; CMA 7; CMA Microdialysis AB, Kista, Sweden) with a polyethersulfone 2 mm membrane with tubing adapters bathed in 75% ethanol. FEP tubing (CMA Microdialysis AB, Kista, Sweden) was connected to each microsyringe. The FEP tubing was then connected to the inlet part of the microdialysis probes. Transparent cages were prepared with 1.5 cm of bedding, filled water bottles, and treats. Saline or drugs were loaded inside a gastight microsyringe (CMA Microdialysis AB, Kista, Sweden), which was placed into a syringe pump (CMA 4004). The “dead volume” of the FEP outlet tubing ([…]) was calculated. 100 cm of FEP outlet tubing was used, and therefore the first […] sampled from each animal were discarded. Prior to inserting the microdialysis probes into the guide cannula, the probe was conditioned in 75% ethanol for better recovery of analytes. At the conclusion of microdialyte sampling, the vials of 60 μl CSF were centrifuged and kept at −80° C. until the samples were analyzed with multiplex ELISA.
(§2) In these experiments, a final concentration of 50 mg/kg of Fasudil (10 mM; Selleck Chemicals, Houston, TX, United States) was infused for 14 days in mice and stored at −80° C., whilst a final concentration of 80 mg/kg of Lonafarnib (5 mM; Cayman Chemical, Ann Arbor, MI, United States) was infused for 10 days and stored −20° C. between infusions. […] All dosages in ml were calculated using; dosage (mg)/concentration (mg/ml)=dose×ml) and were infused at a volume of 60 μl at a rate of 1 μl/min using saline as a control vehicle. […]
The MILLIPLEX® MAP human Aβ and tau magnetic bead panel 4-plex ELISA kit (Millipore, Burlington, MA, United States) and the Bio-Plex 200 System instrument (Biorad, Hercules, CA, United States) were used to assess simultaneously the concentrations of Aβ40, Aβ42, total tau (t-tau), and phosphorylated tau at Thr181 (p-tau) in CSF samples. The samples were undiluted and analyzed in duplicates.

3xTg AD mice [4] = assay: LAMP1 immunolabelling in dSub; format: in vivo; conditions: Lonafarnib infused (n=4) vs vehicle (n=8)
Source text: We immunolabelled for lysosomal associated membrane protein 1 (LAMP1) in 3xTg AD mice.

[5] = tested on: 3xTg AD mice injected with AAV-tau; assay: Quantification of tau+ neurons in LEC layer II after AAV-tau injection and intraventricular infusion; format: in vivo; conditions: Lonafarnib 80 mg/kg intraventricular, 10 days; 6 months-old 3xTg AD mice; n.s.
Protocol: Mice were treated identically to microdialysis guide implantation surgeries, up until deriving stereotaxic coordinates. To target LEC layer II, a craniotomy was made at 0.5 mm anterior to lambda and ˜4 mm lateral (dependent on animal weight) to the midline. A Hamilton microsyringe (Neuros 32-gauge syringe, 5 μl, Hamilton company, Nevada, United States) was lowered vertically into the brain to a depth ˜3.6 mm (dependent on animal weight) from the surface, and 300-1,500 nl of viruses was injected using a microinjector (Nanoliter 2010, World Precision Instruments Inc., United States). We injected the adeno-associated virus (AAV)8 GFP-2a-P301 Ltau (with the chicken beta actin [CBA] promoter; hereafter referred to as AAV-tau). In AAV-tau the short 2A peptide cleaves GFP and human tau during translation at the ribosome. […]
as §2

3xTg AD mice [6] = assay: Quantification of amyloid plaques (number, size) in dSub after intraventricular infusions; format: in vivo; conditions: Lonafarnib 80 mg/kg intraventricular, 10 days, 14 months-old 3xTg AD mice
Protocol: Mice were administered a lethal dose of sodium pentobarbital (100 mg/ml; Apotekforeningen, Oslo, Norway) and transcardially perfused with Ringer's solution followed by paraformaldehyde (PFA, 4%; Sigma-Aldrich) in 125 mM phosphate buffer (PB). Brains were extracted and fixed for a minimum of 24 h in PFA at 4° C. and transferred to a 2% DMSO solution prepared in PB for 24 h at 4° C. Brains were sectioned coronally at 40 μm on a freezing-sliding microtome (Microm HM430, ThermoFisher Scientific, Waltham, MA, United States).
An incision was made in the non-implanted hemisphere for visualization of the control hemisphere. Immunohistochemical processing was conducted on the tissue. […]

mice = assay: Observation of side-effects during intraventricular drug infusions; format: in vivo; conditions: intraventricular infusion: 50 mg/kg Fasudil for 14 days; 80 mg/kg Lonafarnib for 10 days
Protocol: Fasudil and Lonafarnib have previously been delivered using DMSO, which can damage the BBB and mitochondria as well as cause apoptosis. […] Previous research has shown that ˜98% of all small molecules are not transported across the BBB, whilst other research has shown poor drug transport from CSF to the brain. Taking drug transport across the BBB, and from CSF into the brain parenchyma into consideration, dosages of both 25, 50 and 80 mg/kg were administered in initial pilot experiments.
as §1

For `NC(=O)N1CCC(CC(=O)N2CCC([C@H]3c4ncc(Br)cc4CCc4cc(Cl)cc(Br)c43)CC2)CC1` [Lonafarnib, 4-(2-{4-[(11R)-3,10-dibromo-8-chloro-6,11-dihydro-5H-benzo[5,6]cyclohepta[1,2-b]pyridin-11-yl]piperidin-1-yl}-2-oxoethyl)piperidine-1-carboxamide], the “solubility in aqueous buffers” value [1] is given as “sparingly soluble”, the “number of Aβ+ neurons in dSub” value (3xTg AD mice [2]) is given as “did not affect” and the “CSF AB42 levels” value (3xTg AD mice [3]; n.s.) is given as “moderately reduced”. The CSF p-tau levels (3xTg AD mice [3]; n.s.) was “moderately reduced”, the “CSF Aβ40 levels” value (3xTg AD mice [3]; p<0.01) was “effectively reduced” and the CSF t-tau levels (3xTg AD mice [3]; p<0.01) was “effectively reduced”. The “LAMP1+ neurons in dSub compared to vehicle infused mice” value (3xTg AD mice [4]) was “more prominent”, the “number of tau+ neurons in LEC following injection of AAV-tau” value [5] was “moderately reduced” and the “size of amyloid plaques in dSub compared to vehicle” value (3xTg AD mice [6]; n.s.) was “moderately increased”. For the same molecule, the “number of dense-core amyloid plaques (overlapping with MC1 immunolabelling) in dSub compared to vehicle infused mice” value (3xTg AD mice [6]; p=0.0017) was “effectively reduced” and the observable side-effects (mice) was “no observable side-effects”.

From patent US20240115581A1, “Combination therapy for the treatment or prevention of neurological disorders” (Norwegian University of Science and Technology (NTNU), priority 2022, published 2024)
